In US6900206B2, “Indole, azaindole and related heterocyclic sulfonylureido piperazine derivatives” (priority 2002, dated 2005) one finds EC50 data, which are given here for 12 molecules.

One may read the EC50 as the concentration giving half of the maximal effect.

This experiment deals with HIV-1 single-round infectious reporter virus. The experiment can be described thus: microbe, parasite or virus in culture. In kind it is cell-based. The note with it: Human immunodeficiency virus 1, HeLa, 72 h, read-out: EC50 Group from Table 1. The procedure:
• Virus production—Human embryonic Kidney cell line, 293T, was propagated in Dulbecco's Modified Eagle Medium (Invitrogen, Carlsbad, Calif.) containing 10% fetal Bovine serum (FBS, Sigma, St. Louis, Mo.). • Virus infection—Human epithelial cell line, HeLa, expressing the HIV-1 receptor CD4 was propagated in Dulbecco's Modified Eagle Medium (Invitrogen, Carlsbad, Calif.) containing 10% fetal Bovine serum (FBS, Sigma, St. Louis, Mo.) and supplemented with 0.2 mg/mL Geneticin (Invitrogen, Carlsbad, Calif.). Virus—Single-round infectious reporter virus was produced by co-transfecting human embryonic Kidney 293 cells with an HIV-1 envelope DNA expression vector and a proviral cDNA containing an envelope deletion mutation and the luciferase reporter gene inserted in place of HIV-1 nef sequences (Chen et al, Ref. 41). Transfections were performed using lipofectAMINE PLUS reagent as described by the manufacturer (Invitrogen, Carlsbad, Calif.). Experiment • 1. HeLa CD4 cells were plated in 96 well plates at a cell density of 1×10^4 cells per well in 100 μl Dulbecco's Modified Eagle Medium containing 10% fetal Bovine serum and incubated overnight. • 2. Compound was added in a 2 μl dimethylsulfoxide solution, so that the final assay concentration would be ≦10 μM. • 3. 100 μl of single-round infectious reporter virus in Dulbecco's Modified Eagle Medium was then added to the plated cells and compound at an approximate multiplicity of infection (MOI) of 0.01, resulting in a final volume of 200 μl per well. • 4. Virally-infected cells were incubated at 37 degrees Celsius, in a CO2 incubator, and harvested 72 h after infection. • 5. Viral infection was monitored by measuring luciferase expression from viral DNA in the infected cells using a luciferase reporter gene assay kit, as described by the manufacturer (Roche Molecular Biochemicals, Indianapolis, Ind.). Infected cell supernatants were removed and 50 μl of lysis buffer was added per well. After 15 minutes, 50 μl of freshly-reconstituted luciferase assay reagent was added per well. Luciferase activity was then quantified by measuring luminescence using a Wallac microbeta scintillation counter. • 6. […] An EC50 provides a method for comparing the antiviral potency of the compounds of this invention. The effective concentration for fifty percent inhibition (EC50) was calculated with the Microsoft Excel Xlfit curve fitting software. For each compound, curves were generated from percent inhibition calculated at 10 different concentrations by using a four paramenter logistic model (model 205). Table 1 is the key for the data in Table 2. Results
As to `CNC(=O)c1ccc(F)c2c(C(=O)C(=O)N3CCN(S(=O)(=O)N(C)C)CC3)c[nH]c12` [Example 1], the EC50 was less than 1 µM.

As to `CNC(=O)c1ccc(F)c2c(C(=O)C(=O)N3CCN(S(=O)(=O)Nc4ccccc4)CC3)c[nH]c12` [Example 2], the EC50 was 1 to 5 µM. For `CNC(=O)c1ccc(F)c2c(C(=O)C(=O)N3CCN(S(=O)(=O)N4CCOCC4)CC3)c[nH]c12` [Example 3] the value was greater than 5 µM; for `CNC(=O)c1ccc(F)c2c(C(=O)C(=O)N3CCN(S(=O)(=O)NC)CC3)c[nH]c12` [Example 4], greater than 5 µM. To `COC(=O)c1ccc(F)c2c(C(=O)C(=O)N3CCN(S(=O)(=O)N(C)C)CC3)c[nH]c12` [Example 5] belongs greater than 5 µM; to `COC(=O)c1ccc(F)c2c(C(=O)C(=O)N3CCN(S(=O)(=O)N4CCC4)CC3)c[nH]c12` [Example 6], greater than 5 µM; to `COC(=O)c1ccc(F)c2c(C(=O)C(=O)N3CCN(S(=O)(=O)N4CCCCC4)CC3)c[nH]c12` [Example 7], 1 to 5 µM. `CCN(CC)S(=O)(=O)N1CCN(C(=O)C(=O)c2c[nH]c3c(C(=O)OC)ccc(F)c23)CC1` [Example 8]: the EC50 lay in the range of 1 to 5 µM. For `CNC(=O)c1ccc(F)c2c(C(=O)C(=O)N3CCN(S(=O)(=O)N4CCCCC4)CC3)c[nH]c12` [Example 9] the value was 1 to 5 µM; for `CNC(=O)c1ccc(F)c2c(C(=O)C(=O)N3CCN(S(=O)(=O)N4CCC4)CC3)c[nH]c12` [Example 10], greater than 5 µM; for `CCN(CC)S(=O)(=O)N1CCN(C(=O)C(=O)c2c[nH]c3c(C(=O)NC)ccc(F)c23)CC1` [Example 11], 1 to 5 µM. For `CN(C)S(=O)(=O)N1CCN(C(=O)C(=O)c2c[nH]c3c(-n4cncn4)ncc(F)c23)CC1` [Example 12] the value was less than 1 µM.
